# PubChem BioAssay AID1259407 (Chemical Carcinogenesis Research Information System (CCRIS), 2018)
# Active and inactive are the calls of the source. How the calls were made is not given here.
# System: CCRIS mutagenicity, Ames/micronucleus/aberration tests
# Experiment: CCRIS mutagenicity studies
# [1] = Test System: AMES SALMONELLA TYPHIMURIUM, Strain/Indicator: TA98, Metabolic Activation: NONE, Method: STANDARD PLATE
# [2] = Test System: AMES SALMONELLA TYPHIMURIUM, Strain/Indicator: TA98, Metabolic Activation: RAT, LIVER, S-9, AROCLOR 1254, Method: STANDARD PLATE
# [3] = Test System: AMES SALMONELLA TYPHIMURIUM, Strain/Indicator: TA100, Metabolic Activation: NONE, Method: STANDARD PLATE
# [4] = Test System: AMES SALMONELLA TYPHIMURIUM, Strain/Indicator: TA100, Metabolic Activation: RAT, LIVER, S-9, AROCLOR 1254, Method: STANDARD PLATE
# [5] = Test System: AMES SALMONELLA TYPHIMURIUM, Strain/Indicator: TA1535, Metabolic Activation: RAT, LIVER, S-9, AROCLOR 1254, Method: STANDARD PLATE
# [6] = Test System: AMES SALMONELLA TYPHIMURIUM, Strain/Indicator: TA1537, Metabolic Activation: NONE, Method: STANDARD PLATE
# [7] = Test System: MOUSE LYMPHOMA, Strain/Indicator: L5178Y (TK+/TK-), Metabolic Activation: NONE, Method: SUSPENSION/PLATE
# [8] = Test System: MOUSE LYMPHOMA, Strain/Indicator: L5178Y (TK+/TK-), Metabolic Activation: RAT, LIVER, S-9, AROCLOR 1254, Method: SUSPENSION/PLATE
compound,measurement,setting,value
O=S(=O)(O)c1c(N=Nc2c(O)ccc3ccccc23)ccc2ccccc12,mutagenic call,"Test System: AMES SALMONELLA TYPHIMURIUM, Strain/Indicator: TA98, Metabolic Activation: HAMSTER, LIVER, S-9, AROCLOR 1254, Method: STANDARD PLATE",active; positive
same,mutagenic call,"Test System: AMES SALMONELLA TYPHIMURIUM, Strain/Indicator: TA98, Metabolic Activation: HAMSTER, LIVER, S-9, Method: PREINCUBATION (PRIVAL METHOD)",inactive; negative
same,mutagenic call,[1],active; positive
same,mutagenic call,[2],inactive; negative
same,mutagenic call,"Test System: AMES SALMONELLA TYPHIMURIUM, Strain/Indicator: TA100, Metabolic Activation: HAMSTER, LIVER, S-9, AROCLOR 1254, Method: STANDARD PLATE",active; positive
same,mutagenic call,[3],inactive; negative
same,mutagenic call,[4],inactive; negative
same,mutagenic call,"Test System: AMES SALMONELLA TYPHIMURIUM, Strain/Indicator: TA1535, Metabolic Activation: HAMSTER, LIVER, S-9, AROCLOR 1254, Method: STANDARD PLATE",active; positive
same,mutagenic call,"Test System: AMES SALMONELLA TYPHIMURIUM, Strain/Indicator: TA1535, Metabolic Activation: NONE, Method: STANDARD PLATE",inactive; negative
same,mutagenic call,[5],inactive; negative
same,mutagenic call,[6],inactive; negative
same,mutagenic call,"Test System: AMES SALMONELLA TYPHIMURIUM, Strain/Indicator: TA1538, Metabolic Activation: HAMSTER, LIVER, S-9, AROCLOR 1254, Method: STANDARD PLATE",active; positive
same,mutagenic call,"Test System: AMES SALMONELLA TYPHIMURIUM, Strain/Indicator: TA1538, Metabolic Activation: NONE, Method: STANDARD PLATE",inactive; negative
same,mutagenic call,"Test System: AMES SALMONELLA TYPHIMURIUM, Strain/Indicator: TA1538, Metabolic Activation: RAT, LIVER, S-9, AROCLOR 1254, Method: STANDARD PLATE",inactive; negative
same,mutagenic call,[7],inactive; negative. reevaluation of results: inconclusive
same,mutagenic call,[8],inactive; negative. reevauluation of results: negative
ClC(Cl)Cl,mutagenic call,"Test System: AMES SALMONELLA TYPHIMURIUM, Strain/Indicator: RSJ100, Metabolic Activation: NONE, Method: PREINCUBATION",inactive; negative
same,mutagenic call,"Test System: AMES SALMONELLA TYPHIMURIUM, Strain/Indicator: RSJ100, Metabolic Activation: RAT LIVER S-9, Method: PREINCUBATION",inactive; negative
same,mutagenic call,"Test System: AMES SALMONELLA TYPHIMURIUM, Strain/Indicator: TA98, Metabolic Activation: NONE, Method: PREINCUBATION",inactive; negative
same,mutagenic call,[1],active; positive
same,mutagenic call,"Test System: AMES SALMONELLA TYPHIMURIUM, Strain/Indicator: TA98, Metabolic Activation: RAT LIVER S-9, Method: PREINCUBATION",inactive; negative
same,mutagenic call,[2],active; positive
same,mutagenic call,"Test System: AMES SALMONELLA TYPHIMURIUM, Strain/Indicator: TA100, Metabolic Activation: NONE, Method: FLUCTUATION TEST",inactive; negative
same,mutagenic call,"Test System: AMES SALMONELLA TYPHIMURIUM, Strain/Indicator: TA100, Metabolic Activation: NONE, Method: PREINCUBATION",inactive; negative
same,mutagenic call,[3],active; positive
same,mutagenic call,"Test System: AMES SALMONELLA TYPHIMURIUM, Strain/Indicator: TA100, Metabolic Activation: RAT LIVER S-9, Method: PREINCUBATION",inactive; negative
same,mutagenic call,"Test System: AMES SALMONELLA TYPHIMURIUM, Strain/Indicator: TA100, Metabolic Activation: RAT, LIVER, S-9, AROCLOR 1254, Method: FLUCTUATION TEST",inactive; negative
same,mutagenic call,[4],active; positive
same,mutagenic call,"Test System: AMES SALMONELLA TYPHIMURIUM, Strain/Indicator: TA1535 (GST-), Metabolic Activation: NONE, Method: STANDARD PLATE",inactive; negative
same,mutagenic call,[5],active; positive
same,mutagenic call,[6],active; positive
same,mutagenic call,"Test System: AMES SALMONELLA TYPHIMURIUM, Strain/Indicator: TA1537, Metabolic Activation: RAT, LIVER, S-9, AROCLOR 1254, Method: STANDARD PLATE",active; positive
same,mutagenic call,"Test System: Ames Salmonella typhimurium, Strain/Indicator: TA98, Metabolic Activation: None, Method: Gas exposure method",inactive; negative
same,mutagenic call,"Test System: Ames Salmonella typhimurium, Strain/Indicator: TA98, Metabolic Activation: Rat, Liver, S9, Sodium phenobarbital and 5,6-benzoflavone (10%), Method: Gas exposure method",inactive; negative
same,mutagenic call,"Test System: Ames Salmonella typhimurium, Strain/Indicator: TA100, Metabolic Activation: None, Method: Gas exposure method",inactive; negative
same,mutagenic call,"Test System: Ames Salmonella typhimurium, Strain/Indicator: TA100, Metabolic Activation: Rat, Liver, S9, Sodium phenobarbital and 5,6-benzoflavone (10%), Method: Gas exposure method",inactive; negative
same,mutagenic call,"Test System: Ames Salmonella typhimurium, Strain/Indicator: TA1535, Metabolic Activation: None, Method: Gas exposure method",inactive; negative
same,mutagenic call,"Test System: Ames Salmonella typhimurium, Strain/Indicator: TA1535, Metabolic Activation: Rat, Liver, S9, Sodium phenobarbital and 5,6-benzoflavone (10%), Method: Gas exposure method",inactive; negative
same,mutagenic call,"Test System: Ames Salmonella typhimurium, Strain/Indicator: TA1537, Metabolic Activation: None, Method: Gas exposure method",inactive; negative
same,mutagenic call,"Test System: Ames Salmonella typhimurium, Strain/Indicator: TA1537, Metabolic Activation: Rat, Liver, S9, Sodium phenobarbital and 5,6-benzoflavone (10%), Method: Gas exposure method",inactive; negative
same,mutagenic call,"Test System: CHINESE HAMSTER V-79, Strain/Indicator: V-79/8-AZAGUANINE, Metabolic Activation: NONE, Method: SUSPENSION/PLATE",active; positive
same,mutagenic call,"Test System: CHINESE HAMSTER V-79, Strain/Indicator: V-79/OUABAIN, Metabolic Activation: NONE, Method: SUSPENSION/PLATE",inactive; negative
same,mutagenic call,"Test System: E. coli, Strain/Indicator: WP2/pKM101, Metabolic Activation: None, Method: Gas exposure method",inactive; negative (two experimental trials)
same,mutagenic call,"Test System: E. coli, Strain/Indicator: WP2/pKM101, Metabolic Activation: Rat, Liver, S9, Sodium phenobarbital and 5,6-benzoflavone (10%) with glutathione, Method: Gas exposure method",inactive; negative (two experimental trials)
same,mutagenic call,"Test System: E. coli, Strain/Indicator: WP2/pKM101, Metabolic Activation: Rat, Liver, S9, Sodium phenobarbital and 5,6-benzoflavone (10%) without glutathione, Method: Gas exposure method",inactive; negative (two experimental trials)
same,mutagenic call,"Test System: E. coli, Strain/Indicator: WP2uvrA/pKM101, Metabolic Activation: None, Method: Gas exposure method",inactive; negative
same,mutagenic call,"Test System: E. coli, Strain/Indicator: WP2uvrA/pKM101, Metabolic Activation: Rat, Liver, S9, Sodium phenobarbital and 5,6-benzoflavone (10%), Method: Gas exposure method",inactive; negative
same,mutagenic call,"Test System: E.COLI, Strain/Indicator: WP2UVRA/PKM101, Metabolic Activation: NONE, Method: GAS EXPOSURE",inactive; negative
same,mutagenic call,"Test System: E.COLI, Strain/Indicator: WP2UVRA/PKM101, Metabolic Activation: RAT LIVER S-9, PHENOBARBITOL AND 5,6-BENZOFLAVONE, GLUTATHIONE-SUPPLEMENTED, Method: GAS EXPOSURE",active; positive
same,mutagenic call,"Test System: E.COLI, Strain/Indicator: WP2UVRA/PKM101, Metabolic Activation: RAT LIVER S-9, PHENOBARBITOL AND 5,6-BENZOFLAVONE, Method: GAS EXPOSURE",inactive; negative
same,mutagenic call,[7],inactive; negative
same,mutagenic call,[8],active; positive
same,mutagenic call,"Test System: UDS MOUSE HEPATOCYTES, Strain/Indicator: THY INCORP, Metabolic Activation: NONE, Method: AUTORADIOGRAPHY",inactive; negative
